Patent publication US20250281620A1, “HYDROXYBISPHOSPHONIC DERIVATIVES OF MELOXICAM FOR THE TREATMENT OF INFLAMMATORY JOINT DISEASES” (Atlanthéra, priority 2021, published 2025)

Columns and labels:
Solubility in water = assay type: physicochemical; details: general statement, no method described
monoarthritis in rats = assay: mBSA-induced monoarthritis model in rats (knee swelling, limping); assay type: in vivo, rat; details: oral daily meloxicam 0.2 mg/kg
Method: Monoarthritis was induced in rats (male, Sprague Dawley strain, aged 14 weeks) by intra-articular injection (knee) of 100 μg of mBSA after two preliminary sensitizers (2 and 3 weeks before the induction) by subcutaneous injection of a CFA emulsion containing 500 μg of mBSA. The distribution was carried out on D2, 24 h after induction, as a function of the intensity of the swelling in order to obtain homogeneity between the groups. […] The HBP-meloxicam molecules were solubilized in 5% glucose. In control, the pathological animals (mBSA) received a single injection (caudal vein, 5 min infusion, volume of 10 mL/kg) of 5% glucose.
In reference treatment, the animals received an oral daily administration of meloxicam for 28 days at the NOEL dose of 0.2 mg/kg-0.57 μmol/kg, i.e., a cumulative dose of 15.96 μmol/kg.
The evolution of arthritis was monitored by measuring the swelling of the pathological knee as well as the animal's limping.

- solubility in water (Solubility in water): very poorly soluble
Structure (SMILES): Cc1cnc(NC(=O)C2=C(O)c3ccccc3S(=O)(=O)N2C)s1 [meloxicam]
- end of limping after treatment (monoarthritis in rats): 9 days
